Data published in US20090098222A1, “Accelerating Agent of Calcium Absorption” (priority 2006, published 2009).

Tests used:
[1] = test system: rats fed a calcium-deficient diet; test: Effects on urinary excretion of calcium (metabolic cage); assay type: in vivo, rat; conditions: total for three days, 40 mL of water containing the substance, FIG. 2
Experimental: (§1) […]. Male Wistar rats weighing 200-250 g, and about 120 g especially in the experiment of studying calcium born absorption (Test Example 3), were used as an experimental animal.
Usually, calcium concentrations in blood are constantly maintained by biogenic homeostasis and it is difficult to utilize it as an index of calcium absorption. Accordingly, the urinary excretion of calcium was assayed in place of it.
Rats were kept in a metabolic cage and 40 mL of water containing calcium (Ca), Gum Arabic (GA), or Ca and GA (Ca+GA) was given for three days. […]. After recovering urine, urinary concentration of calcium and urine volume were measured.

[2] = test system: rats fed a calcium-deficient diet; test: Effects on bone absorption of calcium (30-day oral administration); assay type: in vivo, rat; conditions: 30 days, 1 mg (Ca)/day, GA coadministered with Ca, compared with the Ca-treated group, FIG. 6
Text: as §1
Next, it was studied whether the accelerating effect of GA on calcium absorption reaches bone absorption, and prevents the decease of calcium content in the bone, using rats fed a calcium-deficient diet.
Calcium (Ca-treated group), or calcium and GA ([Ca+GA]-treated group) were orally administered to rats for 30 days with an amount of 1 mg (ca)/day, and changes of hardness and mineral (Ca, Mg, P, Zn) content of the femur, or ALP in blood were observed. Rats were fed a calcium-deficient diet in order to eliminate an effect of calcium contained in the normal diet.

C[C@H](O)C(=O)[O-].C[C@H](O)C(=O)[O-].[Ca+2] [Ca, calcium L-lactate]
urinary excretion of calcium [1]: not increased
ALP in blood [2]: elevation of ALP in blood was observed
